These results are taken from US20260200943A1, “COMPOUNDS FOR TREATING CANCER” (Genesis Therapeutics, Inc., priority 2022, published 2026).

Format in all cases: biochemical
In assay [1] the target is T1, CDK1/CyclinB1 (Homo sapiens, UniProt P06493).
T1 construct: Wild-type, full length CDK1 in complex with wildtype, full length CyclinB1: Carna Cat #04-102; purchased Carna 04-102
As to the kind of experiment: CDK1/CyclinB1 ChEF Assay (AQT, Table C). As to conditions: 10xKm, read-out: CDK1/CCNB1 AQT AQT10xKm Ki: Average Ki. On the procedure:
(§1) 16 nL of 1000× compound in 100% DMSO is added to a 384-well low volume, black assay plate. 12 μL of 1.3×CDK1/CyclinB1 (Wild-type, full length CDK1 in complex with wildtype, full length CyclinB1: Carna Cat #04-102) diluted in assay buffer (54 mM Hepes, 0.012% Brij-35, 10 mM MgCl2, 0.55 mM EGTA, 1% Glycerol, 0.02% BSA, and 1.2 mM DTT) is added to the plates on top of the compound and pre-incubated for 30 minutes at room temperature. Following the incubation, 4 uL of 4×Sox-chromophore (CSox) labeled peptide substrate (AQT0297, AssayQuant) & ATP diluted in assay buffer is added to the plate to initiate the reaction. The assay is incubated at room temperature for 120 min after initiation. The CSox peptide substrate is phosphorylated by CDK1/B1 upon ATP hydrolysis.
(§2) The fluorescent intensity measurement of the assay plate is read on a microplate reader once the assay is initiated and again at the completion of the assay. Phosphorylation of the CSox-based peptide substrate sensor results in an immediate increase in fluorescence. These raw fluorescence intensity values are normalized to calculate percent inhibition, which are fit to a four-parameter logistic curve and IC50 values are calculated. IC50 values are converted to Ki using substrate, KM^app values, and the Cheng-Prusoff equation.

Assay [2] has as its target T2, CDK2/CyclinA2 (Homo sapiens, UniProt P24941).
T2 construct: Wild-type, full length CDK2 in complex with wildtype, full length CyclinA2: Carna Cat #04-103; purchased Carna 04-103
As to the kind of experiment: CDK2/CyclinA2 ChEF Assay (AQT, Table C). To be noted: 10xKm; for Ki: AQT ChEF, read-out: CDK2/CCNA2 AQT10xKm Ki: Average Ki; for CDK2/CCNA2 AQT10xKm Ki: CDK2/A2 Selectivity over CDK1/B1 / CDK2/CCNA2 AQT10xKm Ki: CDK2/A2 selectivity over CDK4/D1 / CDK2/CCNA2 AQT10xKm Ki: CDK2/A2 selectivity over CDK6/D3 / CDK2/CCNA2 AQT10xKm Ki: CDK2/A2 Selectivity over CDK9: AQT. As to the method: as §1, with “1.3×CDK2/CyclinA2” for “1.3×CDK1/CyclinB1”, “CDK2” for “CDK1”, “CyclinA2:” for “CyclinB1:”, “#04-103” for “#04-102)”, “90” for “120”, “CDK2/A2” for “CDK1/B1”
as §2

Assay [3] addresses CDK9/CyclinT1 (Homo sapiens, UniProt P50750). The assay is described as follows: CDK9/CyclinT1 ChEF Assay (Table A). Further details: Wild-type, full length CDK9 in complex with wildtype, full length CyclinT1: Invitrogen Cat #PV4131; purchased Invitrogen PV4131. To be noted: 10xKm, read-out: CDK9/CCNT1 ChEF 10xKm Ki: Average Ki. On the procedure:
500 nL of 50× compound in 100% DMSO is added to a 384-well low volume, white assay plate. 19.5 μL of 1.3×CDK9/CyclinT1 (Wild-type, full length CDK9 in complex with wildtype, full length CyclinT1: Invitrogen Cat #PV4131) diluted in assay buffer (50 mM Hepes, 0.01% Brij-35, 10 mM MgCl2, 0.5 mM EGTA, 1% Glycerol, and 1.2 mM DTT) is added to the plates on top of the compound and pre-incubated for 30 minutes at room temperature. Following the incubation, 5 μL of 5×Sox-chromophore (CSox) labeled peptide substrate (AQT0449, AssayQuant) & ATP diluted in assay buffer is added to the plate to initiate the reaction. The assay is incubated at room temperature for 120 min after initiation. The CSox peptide substrate is phosphorylated by CDK9/T1 upon ATP hydrolysis.
The fluorescent intensity measurement of the assay plate for all assays described above is read on a microplate reader once the assay is initiated and again at the completion of the assay. Phosphorylation of the CSox-based peptide substrate sensor results in an immediate increase in fluorescence. These raw fluorescence intensity values are normalized to calculate percent inhibition, which are fit to a four-parameter logistic curve and IC50 values are calculated. IC50 values are converted to Ki using substrate, KM^app values, and the Cheng-Prusoff equation.

Assay [4] addresses T1, CDK1/CyclinB1. The assay is described as follows: CDK1/Cyclin B1 Mobility Shift Assay (Caliper, Table B). To be noted: read-out: CDK1/CCNB1 Caliper Ki: Average Ki. As to the method:
10 nL of 2000× compound in 100% DMSO is added to a 384-well polypropylene assay plate. 15 μL of 1.3×CDK1/B1 and 1.3× fluorescent substrate (Wild-type, full length CDK1 in complex with wildtype, full length CyclinB1: Carna Cat #04-102 and FL-Peptide 29: PerkinElmer Cat #760429) diluted in kinase buffer (50 mM Hepes, 0.01% Brij-35, 10 mM MgCl2, 1 mM EGTA, 0.05% BSA, and 2 mM DTT) is added to the plates on top of the compound, mixed, and pre-incubated for 30 minutes at room temperature. The fluorescently labeled peptide substrate is phosphorylated by CDK1/B1 upon ATP hydrolysis. Following the incubation, 5 μL of 4×ATP diluted in kinase buffer is added to the plate to initiate the reaction. Following the 30-minute incubation, the reaction is stopped by adding 75 μL of stopping buffer containing 0.5 M EDTA.
The assay plate is then read on a Lab Chip EZ Reader which separates the fluorescently labeled substrate and product peptides through a mobility difference. The phosphorylation of the substrate imparts a negative charge, which allows differences in separation as both are pulled through the microfluidic chip. The ratio of substrate and product values are used to generate percent conversion. These raw percent conversion values are normalized to calculate percent inhibition, which are fit to a four-parameter logistic curve and IC50 values are calculated. IC50 values are converted to Ki using substrate, Kmapp values, and the Cheng-Prusoff equation.

T1 sequence (P06493 whole entry): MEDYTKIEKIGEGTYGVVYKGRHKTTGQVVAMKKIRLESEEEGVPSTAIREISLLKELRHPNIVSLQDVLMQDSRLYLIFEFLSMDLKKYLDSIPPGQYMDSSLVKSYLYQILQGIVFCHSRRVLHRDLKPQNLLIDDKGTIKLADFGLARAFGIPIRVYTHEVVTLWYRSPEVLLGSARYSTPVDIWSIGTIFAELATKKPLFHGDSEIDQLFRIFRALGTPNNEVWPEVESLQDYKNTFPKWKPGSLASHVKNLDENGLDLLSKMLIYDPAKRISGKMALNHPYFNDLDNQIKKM
T1 sequence (P14635 whole entry partner): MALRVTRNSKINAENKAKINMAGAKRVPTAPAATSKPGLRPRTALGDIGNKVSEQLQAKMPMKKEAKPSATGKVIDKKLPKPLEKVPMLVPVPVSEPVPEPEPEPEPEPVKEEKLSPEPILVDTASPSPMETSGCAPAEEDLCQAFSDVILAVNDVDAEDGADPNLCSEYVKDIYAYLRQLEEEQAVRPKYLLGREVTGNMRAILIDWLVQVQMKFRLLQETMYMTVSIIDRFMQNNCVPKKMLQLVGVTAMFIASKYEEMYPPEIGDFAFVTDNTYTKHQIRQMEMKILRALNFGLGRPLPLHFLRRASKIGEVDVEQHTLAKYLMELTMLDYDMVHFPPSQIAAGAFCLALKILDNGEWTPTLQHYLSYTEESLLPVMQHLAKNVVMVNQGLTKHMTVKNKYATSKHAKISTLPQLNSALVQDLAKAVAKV
Sequence of CDK9/CyclinT1 (P50750 whole entry): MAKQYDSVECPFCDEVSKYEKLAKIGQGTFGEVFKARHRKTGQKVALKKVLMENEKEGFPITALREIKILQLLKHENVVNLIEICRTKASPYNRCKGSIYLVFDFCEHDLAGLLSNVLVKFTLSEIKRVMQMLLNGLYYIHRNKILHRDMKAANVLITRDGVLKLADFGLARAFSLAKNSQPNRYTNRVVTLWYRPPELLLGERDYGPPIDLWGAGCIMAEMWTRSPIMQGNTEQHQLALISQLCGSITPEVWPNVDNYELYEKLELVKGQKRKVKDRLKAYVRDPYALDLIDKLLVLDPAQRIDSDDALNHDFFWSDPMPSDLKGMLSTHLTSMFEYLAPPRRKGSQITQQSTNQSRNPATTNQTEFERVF
Sequence of CDK9/CyclinT1 (O60563 whole entry partner): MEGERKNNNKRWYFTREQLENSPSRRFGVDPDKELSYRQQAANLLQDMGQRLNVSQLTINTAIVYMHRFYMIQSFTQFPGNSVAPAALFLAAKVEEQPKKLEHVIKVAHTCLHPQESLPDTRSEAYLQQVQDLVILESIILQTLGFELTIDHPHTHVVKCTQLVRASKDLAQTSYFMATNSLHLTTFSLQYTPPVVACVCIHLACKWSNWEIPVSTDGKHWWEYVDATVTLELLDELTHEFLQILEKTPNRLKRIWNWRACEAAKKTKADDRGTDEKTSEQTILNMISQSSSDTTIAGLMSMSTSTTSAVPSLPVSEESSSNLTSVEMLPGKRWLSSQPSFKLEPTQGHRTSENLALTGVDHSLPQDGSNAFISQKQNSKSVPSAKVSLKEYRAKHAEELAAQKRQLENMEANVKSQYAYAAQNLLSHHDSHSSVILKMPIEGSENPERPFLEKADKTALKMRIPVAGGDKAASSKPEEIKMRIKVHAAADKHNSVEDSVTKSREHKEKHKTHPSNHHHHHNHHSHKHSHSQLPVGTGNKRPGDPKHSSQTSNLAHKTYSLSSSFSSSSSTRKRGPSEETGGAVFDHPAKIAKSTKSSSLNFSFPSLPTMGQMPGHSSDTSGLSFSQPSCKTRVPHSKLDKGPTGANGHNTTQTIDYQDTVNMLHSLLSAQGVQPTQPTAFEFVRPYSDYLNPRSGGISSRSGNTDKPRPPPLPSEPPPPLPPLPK

On to `NS(=O)(=O)c1ccc2cc1OCCCCCNC(=O)O[C@@H]1CC[C@@H](C1)c1cnc(nc1)N2` (stereo in doubt) [Compound 105, rel-(2S,5R)-7-oxo-6,14-dioxa-8,20,22,25-tetraazatetracyclo[19.2.2.1^{2,5}.1^{15,19}]heptacosa-1(23),15,17,19(26),21,24-hexaene-16-sulfonamide], for which, in assay [1], the Ki lay within 0.001 to 0.025 µM. Besides, in assay [2], the Ki is under 0.001 µM, the “CDK2/CCNA2 AQT10xKm Ki: CDK2/A2 Selectivity over CDK1/B1” value is given as “A (A>10)”, the “CDK2/CCNA2 AQT10xKm Ki: CDK2/A2 selectivity over CDK4/D1” value is given as “A (A>10)” and the “CDK2/CCNA2 AQT10xKm Ki: CDK2/A2 selectivity over CDK6/D3” value is “A (A>10)”. The “CDK2/CCNA2 AQT10xKm Ki: CDK2/A2 Selectivity over CDK9” value in assay [2] is listed as “A (A>10)”.
On to `O=C1NCCOCCNS(=O)(=O)c2ccc(c(F)c2)Nc2cc([nH]n2)[C@H]2CC[C@H](C2)O1` [Compound 89, (1^1S,1^3R,Z)-4^2-Fluoro-2^1H-9,14-dioxa-5-thia-3,6,12-triaza-2(5,3)-pyrazola-4(1,4)-benzena-1(1,3)-cyclopentanacyclotetradecaphan-13-one 5,5-dioxide], for which the Ki in assay [3] was at least 0.1 µM; in assay [4], 0.001 to 0.025 µM.
On the same counts, the results for `O=C1NCCCCCNS(=O)(=O)c2ccc(c(F)c2)Nc2cc([nH]n2)[C@H]2CC[C@H](C2)O1` [Compound 90, (1^1S,1^3R,Z)-4^2-fluoro-2^1H-14-oxa-5-thia-3,6,12-triaza-2(5,3)-pyrazola-4(1,4)-benzena-1(1,3)-cyclopentanacyclotetradecaphan-13-one 5,5-dioxide] are at least 0.1 µM and 0.025 to 0.1 µM.
`O=C1NCCCCCCNS(=O)(=O)c2ccc(c(F)c2)Nc2cc([nH]n2)[C@H]2CC[C@H](C2)O1` [Compound 91, (1^1S,1^3R,Z)-4^2-fluoro-2^1H-15-oxa-5-thia-3,6,13-triaza-2(5,3)-pyrazola-4(1,4)-benzena-1(1,3)-cyclopentanacyclopentadecaphan-14-one 5,5-dioxide]: the Ki in assay [1] was in the range of 0.001 to 0.025 µM. In addition, in assay [3], the Ki is at least 0.1 µM. Also, the Ki in assay [4] was 0.001 to 0.025 µM. Further, in assay [2], the Ki is under 0.001 µM, the “CDK2/CCNA2 AQT10xKm Ki: CDK2/A2 Selectivity over CDK1/B1” value was “A (A>10)”, the “CDK2/CCNA2 AQT10xKm Ki: CDK2/A2 selectivity over CDK4/D1” value was “A (A>10)” and the “CDK2/CCNA2 AQT10xKm Ki: CDK2/A2 selectivity over CDK6/D3” value is on record as “A (A>10)”. In addition, the “CDK2/CCNA2 AQT10xKm Ki: CDK2/A2 Selectivity over CDK9” value in assay [2] is “A (A>10)”.
On to `O=C1NCCCCCCCNS(=O)(=O)c2ccc(c(F)c2)Nc2cc([nH]n2)[C@H]2CC[C@H](C2)O1` [Compound 92], for which the Ki was at least 0.1 µM in assay [3] and under 0.001 µM in assay [4].
On the same counts, the results for `O=C1NCCCn2cc(cn2)S(=O)(=O)N2CCC(CC2)Nc2cc([nH]n2)[C@H]2CC[C@H](C2)O1` [Compound 95, (1^1S, 1^3R,2^4Z,6^4E)-2^1H,6^1H-12-oxa-5-thia-3,10-diaza-4(4,1)-piperidina-2(5,3),6(4,1)-dipyrazola-1(1,3)-cyclopentanacyclododecaphan-11-one 5,5-dioxide] are at least 0.1 µM and at least 0.1 µM.
Turning to `O=C1NCCCCCn2cc(cn2)S(=O)(=O)N2CCC(CC2)Nc2cc([nH]n2)[C@H]2CC[C@H](C2)O1` [Compound 96, (1^1S,1^3R,2^4Z,6^4E)-2^1H,6^1H-14-oxa-5-thia-3,12-diaza-4(4,1)-piperidina-2(5,3),6(4,1)-dipyrazola-1(1,3)-cyclopentanacyclotetradecaphan-13-one 5,5-dioxide], the Ki in assay [3] is 0.025 to 0.1 µM; in assay [4], at least 0.1 µM.
On the same counts, the results for `O=C1NCCCNS(=O)(=O)c2ccc(c(F)c2)Nc2cc([nH]n2)[C@H]2CC[C@H](C2)O1` [Compound 98, (1^1S, 1^3R,Z)-4^2-fluoro-2^1H-12-oxa-5-thia-3,6, 10-triaza-2(5,3)-pyrazola-4(1,4)-benzena-1(1,3)-cyclopentanacyclododecaphan-11-one 5,5-dioxide] are 0.025 to 0.1 µM and at least 0.1 µM.
On the same counts, the results for `O=C1NCCCCNS(=O)(=O)c2ccc(c(F)c2)Nc2cc([nH]n2)[C@H]2CC[C@H](C2)O1` [Compound 99, (1^1S, 1^3R,Z)-4^2-fluoro-2^1H-13-oxa-5-thia-3,6,11-triaza-2(5,3)-pyrazola-4(1,4)-benzena-1(1,3)-cyclopentanacyclotridecaphan-12-one 5,5-dioxide] are at least 0.1 µM and 0.001 to 0.025 µM.
On the same counts, the results for `CN1CCNC(=O)O[C@@H]2CC[C@@H](C2)c2cc(n[nH]2)Nc2ccc(cc2F)S(=O)(=O)NCC1` [Compound 100, (1^1S, 1^3R,Z)-4^2-fluoro-9-methyl-2^1H-14-oxa-5-thia-3,6,9,12-tetraaza-2(5,3)-pyrazola-4(1,4)-benzena-1(1,3)-cyclopentanacyclotetradecaphan-13-one 5,5-dioxide] are at least 0.1 µM and at least 0.1 µM.
With `CC1(C)CCCNS(=O)(=O)c2ccc(c(F)c2)Nc2cc([nH]n2)[C@H]2CC[C@H](C2)OC(=O)N1` [Compound 101, (1^1S,1^3R,Z)-4^2-fluoro-10,10-dimethyl-2^1H-13-oxa-5-thia-3,6,11-triaza-2(5,3)-pyrazola-4(1,4)-benzena-1(1,3)-cyclopentanacyclotridecaphan-12-one 5,5-dioxide], the Ki in assay [3] is 0.025 to 0.1 µM; in assay [4], at least 0.1 µM.
The like results for `O=C1NCC=CCNS(=O)(=O)c2ccc(c(F)c2)Nc2cc([nH]n2)[C@H]2CC[C@H](C2)O1` [Compound 102, (1^1S,1^3R,2^4Z)-4^2-fluoro-2^1H-13-oxa-5-thia-3,6,11-triaza-2(5,3)-pyrazola-4(1,4)-benzena-1(1,3)-cyclopentanacyclotridecaphan-8-en-12-one 5,5-dioxide] were, in that order, at least 0.1 µM and 0.025 to 0.1 µM.
